Assays:
NCI-H226 = experiment: NCI screen, growth of human tumor cells: Non-Small Cell Lung NCI-H226; assay type: cell-based
Method: (§1) In the NCI screening process, each compound was tested and described by a minimum of 60 data points. The test data include, but are not limited to the type of cancer, the molar concentration used in the screen, and the percent growth of the cancer. In some cases, NMR and elemental analysis were used for structural assignment.

human cancer cells = experiment: NCI screen summary over the cancers tested (negative growth of human cancer cells); assay type: cell-based; conditions: cancers with negative growth / cancers tested
Method: as §1
The derivatives in the tables are grouped using the same category as in the tables 1-6.

HOP-18 = experiment: NCI screen, growth of human tumor cells: Non-Small Cell Lung HOP-18; assay type: cell-based
Method: as §1

EKVX = experiment: NCI screen, growth of human tumor cells: Non-Small Cell Lung EKVX; assay type: cell-based; conditions: EKVX
Method: as §1

UACC-62 = experiment: NCI screen, growth of human tumor cells: Melanoma UACC-62; assay type: cell-based; conditions: UACC-62 (Melanoma), 10^−4 molar
How it was run: (§2)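 The NCI screen tests each compound on human cancer cell lines and reports percent growth. Concentrations are given in molar units; the number of data points per compound is sixty at minimum.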

SF-539 = experiment: NCI screen, growth of human tumor cells: CNS Cancer SF-539; assay type: cell-based
How it was run: as §2

SK-MEL-28 = experiment: NCI screen, growth of human tumor cells: Melanoma SK-MEL-28; assay type: cell-based; conditions: SK-MEL-28 (Melanoma), 10^−4 molar
Method: as §1

SR = experiment: NCI screen, growth of human tumor cells: Leukemia SR; assay type: cell-based; conditions: SR (Leukemia), 10^−4 molar
How it was run: as §2

AS49/ATCC = experiment: NCI screen, growth of human tumor cells: Non-Small Cell Lung AS49/ATCC; assay type: cell-based; conditions: AS49/ATCC (Non-Small Cell Lung), 10^−4 molar
Method: as §1

NCI-H23 = experiment: NCI screen, growth of human tumor cells: Non-Small Cell Lung NCI-H23; assay type: cell-based; conditions: NCI-H23, 10^−4 molar
Method: as §1

OVCAR-4 = experiment: NCI screen, growth of human tumor cells: Ovarian Cancer OVCAR-4; assay type: cell-based; conditions: OVCAR-4 (Ovarian Cancer), 10^−4 molar
Method: as §1

COLO205 = experiment: NCI screen, growth of human tumor cells: Colon Cancer COLO205; assay type: cell-based; conditions: COLO205 (Colon Cancer), 10^−4 molar
Method: as §1

MDA-MB-435 = experiment: NCI screen, growth of human tumor cells: Breast Cancer MDA-MB-435; assay type: cell-based; conditions: MDA-MB-435, 10^−4 molar
Method: as §1

SNB-75 = experiment: NCI screen, growth of human tumor cells: CNS Cancer SNB-75; assay type: cell-based; conditions: SNB-75 (CNS Cancer), 10^−4 molar
Method: as §1

MCF7/ADR-RES = experiment: NCI screen, growth of human tumor cells: Breast Cancer MCF7/ADR-RES; assay type: cell-based; conditions: MCF7/ADR-RES (Breast Cancer), 10^−4 molar
Method: as §1

SF-268 = experiment: NCI screen, growth of human tumor cells: CNS Cancer SF-268; assay type: cell-based; conditions: SF-268 (CNS Cancer), 10^−4 molar
Method: as §1

HOP-62 = experiment: NCI screen, growth of human tumor cells: Non-Small Cell Lung HOP-62; assay type: cell-based; conditions: HOP-62 (Non-Small Cell Lung), 10^−4 molar
How it was run: as §2

K562 = experiment: NCI screen, growth of human tumor cells: Leukemia K562; assay type: cell-based; conditions: K562 (Leukemia), 10^−4 molar
How it was run: as §2

DU-145 = experiment: NCI screen, growth of human tumor cells: Prostate Cancer DU-145; assay type: cell-based
Method: as §1

UO-31 = experiment: NCI screen, growth of human tumor cells: Renal Cancer UO-31; assay type: cell-based; conditions: UO-31 (Renal Cancer), 10^−4 molar
Method: as §1

U-251 = experiment: NCI screen, growth of human tumor cells: CNS Cancer U-251; assay type: cell-based; conditions: U-251 (CNS Cancer), 10^−4 molar
Method: as §1

HS 578T = experiment: NCI screen, growth of human tumor cells: Breast Cancer HS 578T; assay type: cell-based; conditions: HS 578T (Breast Cancer), 10^−4 molar
Method: as §1

SN12C = experiment: NCI screen, growth of human tumor cells: Renal Cancer SN12C; assay type: cell-based; conditions: SN12C
Method: as §1

HL-60 (TB) = experiment: NCI screen, growth of human tumor cells: Leukemia HL-60 (TB); assay type: cell-based; conditions: HL-60 (TB) (Leukemia), 10^−4 molar
Method: as §1

SF-295 = experiment: NCI screen, growth of human tumor cells: CNS Cancer SF-295; assay type: cell-based; conditions: SF-295 (CNS Cancer), 10^−4 molar
Method: as §1

SK-MEL-5 = experiment: NCI screen, growth of human tumor cells: Melanoma SK-MEL-5; assay type: cell-based
How it was run: as §2

RXF-393 = experiment: NCI screen, growth of human tumor cells: Renal Cancer RXF-393; assay type: cell-based; conditions: RXF-393 (Renal Cancer), 10^−4 molar
Method: as §1

NCI-H460 = experiment: NCI screen, growth of human tumor cells: Non-Small Cell Lung NCI-H460; assay type: cell-based; conditions: NCI-H460 (Non-Small Cell Lung), 10^−4 molar
How it was run: as §2

OVCAR-3 = experiment: NCI screen, growth of human tumor cells: Ovarian Cancer OVCAR-3; assay type: cell-based; conditions: OVCAR-3 (Ovarian Cancer), 10^−4 molar
How it was run: as §2

OVCAR-5 = experiment: NCI screen, growth of human tumor cells: Ovarian Cancer OVCAR-5; assay type: cell-based
Method: as §1

SK-MEL-2 = experiment: NCI screen, growth of human tumor cells: Melanoma SK-MEL-2; assay type: cell-based
Method: as §1

RPMI-8226 = experiment: NCI screen, growth of human tumor cells: Leukemia RPMI-8226; assay type: cell-based; conditions: RPMI-8226 (Leukemia), 10^−4 molar
Method: as §1

ACHN = experiment: NCI screen, growth of human tumor cells: Renal Cancer ACHN; assay type: cell-based; conditions: ACHN, 10^−4 molar
How it was run: as §2

M14 = experiment: NCI screen, growth of human tumor cells: Melanoma M14; assay type: cell-based; conditions: M14 (Melanoma), 10^−4 molar
Method: as §1

BT-549 = experiment: NCI screen, growth of human tumor cells: Breast Cancer BT-549; assay type: cell-based; conditions: BT-549 (Breast Cancer), 10^−4 molar
Method: as §1

HCT-116 = experiment: NCI screen, growth of human tumor cells: Colon Cancer HCT-116; assay type: cell-based; conditions: HCT-116 (Colon Cancer), 10^−4 molar
Method: as §1

HCT-15 = experiment: NCI screen, growth of human tumor cells: Colon Cancer HCT-15; assay type: cell-based; conditions: HCT-15 (Colon Cancer), 10^−4 molar
How it was run: as §2

KM12 = experiment: NCI screen, growth of human tumor cells: Colon Cancer KM12; assay type: cell-based
Method: as §1

O=S1(=O)OCCOS(=O)(=O)C1Cl [MWC 91-6, ethylene chloromethanedisulfonate]
melting point: 85 to 88 °C

O=S1(=O)OCCOS(=O)(=O)C1(Br)Br [NSC 648304, ethylene dibromomethanedisulfonate]
% Growth (NCI-H226; NCI-H226, 10^−4 molar): −1% | % Growth (NCI-H226; NCI-H226, 10^−5 molar): 49% | % Growth (NCI-H226; NCI-H226, 10^−6 molar): 47% | % Growth (NCI-H226; NCI-H226, 10^−7 molar): 54% | % Growth (NCI-H226; NCI-H226, 10^−8 molar): 62% | Percentage of cancers showing negative growth cancers tested (human cancer cells; 10^−4 M conc.): 10^−4 M conc. = 1/3 = 33% | % Growth (HOP-18; HOP-18, 10^−4 molar): 53% | % Growth (HOP-18; HOP-18, 10^−5 molar): 75% | % Growth (HOP-18; HOP-18, 10^−6 molar): 52% | % Growth (HOP-18; HOP-18, 10^−7 molar): 14% | % Growth (HOP-18; HOP-18, 10^−8 molar): 42% | melting point: 214 to 220 °C | % Growth (EKVX; 10^−4 molar): 51% | % Growth (EKVX; 10^−5 molar): 57% | % Growth (EKVX; 10^−6 molar): 58% | % Growth (EKVX; 10^−7 molar): 62% | % Growth (EKVX; 10^−8 molar): 58%

O=S1(=O)OCCOS(=O)(=O)C1Br [NSC 648305, ethylene bromomethanedisulfonate]
% Growth (NCI-H226; NCI-H226, 10^−4 molar): 7% | % Growth (NCI-H226; NCI-H226, 10^−5 molar): 16% | % Growth (NCI-H226; NCI-H226, 10^−6 molar): 20% | % Growth (NCI-H226; NCI-H226, 10^−7 molar): 21% | % Growth (NCI-H226; NCI-H226, 10^−8 molar): 43% | Percentage of cancers showing negative growth cancers tested (human cancer cells; 10^−4 M conc.): 10^−4 M conc. = 1/3 = 33% | % Growth (HOP-18; HOP-18, 10^−4 molar): −61% | % Growth (HOP-18; HOP-18, 10^−5 molar): 68% | % Growth (HOP-18; HOP-18, 10^−6 molar): 49% | % Growth (HOP-18; HOP-18, 10^−7 molar): 63% | % Growth (HOP-18; HOP-18, 10^−8 molar): 63% | melting point: 128 to 134 °C | % Growth (EKVX; 10^−4 molar): 51% | % Growth (EKVX; 10^−5 molar): 56% | % Growth (EKVX; 10^−6 molar): 59% | % Growth (EKVX; 10^−7 molar): 60% | % Growth (EKVX; 10^−8 molar): 65%

O=S1(=O)OCCOS(=O)(=O)C1I [NSC 648309, ethylene iodomethanedisulfonate]
percent of growth of human tumor cells (NCI-H226; NCI-H226 (Non-Small Cell Lung), 10^−4 molar): 20% | Percentage of cancers showing negative growth cancers tested (human cancer cells; 10^−4 M conc.): 10^−4 M conc. = 0/2 = 0% | melting point: 144 to 160 °C | percent of growth of human tumor cells (UACC-62): 17%

O=S1(=O)OCCOS(=O)(=O)C1F [NSC 665942, ethylene fluoromethanedisulfonate]
percent of growth of human tumor cells (SF-539; SF-539 (CNS Cancer), 10^−4 molar): 28% | Percentage of cancers showing negative growth cancers tested (human cancer cells; 10^−4 M conc.): 10^−4 M conc. = 0/1 = 0% | melting point: 84 to 86 °C

CC=CC(=O)C1(C2=C(Cl)C(=O)c3ccccc3C2=O)S(=O)(=O)OCCOS1(=O)=O [NSC 731264, ethylene crotonoyl-[3-chloro-1,4-naptho-2-quinolyl]-1,1-methanedisulfonate]
percent of growth of human tumor cells (SK-MEL-28): −59% | percent of growth of human tumor cells (SR): 7% | % Growth (SF-539; SF-539, 10^−4 molar): −73% | percent of growth of human tumor cells (AS49/ATCC): −36% | % Growth (NCI-H23): −72% | percent of growth of human tumor cells (OVCAR-4): 19% | percent of growth of human tumor cells (COLO205): 30% | % Growth (MDA-MB-435): −73% | percent of growth of human tumor cells (SNB-75): −33% | percent of growth of human tumor cells (MCF7/ADR-RES): 20% | percent of growth of human tumor cells (SF-268): 7% | percent of growth of human tumor cells (HOP-62): −56% | percent of growth of human tumor cells (K562): 19% | % Growth (DU-145; DV-145, 10^−4 molar): −68% | % Growth (DU-145; DV-145, 10^−5 molar): −96% | % Growth (DU-145; DV-145, 10^−6 molar): 38% | percent of growth of human tumor cells (UO-31): 12% | percent of growth of human tumor cells (U-251): −5% | percent of growth of human tumor cells (HS 578T): −12% | Percentage of cancers showing negative growth cancers tested (human cancer cells; 10^−4 M conc.): 65% | Percentage of cancers showing negative growth cancers tested (human cancer cells; 10^−5 M conc.): 50% | Percentage of cancers showing negative growth cancers tested (human cancer cells; 10^−6 M conc.): 25% | % Growth (SN12C; 10^−4 molar): −67% | % Growth (SN12C; 10^−5 molar): −99% | % Growth (SN12C; 10^−6 molar): −4% | percent of growth of human tumor cells (HL-60 (TB)): 17% | percent of growth of human tumor cells (SF-295): −57% | % Growth (SK-MEL-5; SK-MEL-5, 10^−4 molar): −53% | % Growth (SK-MEL-5; SK-MEL-5, 10^−5 molar): 28% | percent of growth of human tumor cells (UACC-62): −16% | percent of growth of human tumor cells (RXF-393): −50% | percent of growth of human tumor cells (NCI-H460): 10% | percent of growth of human tumor cells (OVCAR-3): 5% | % Growth (OVCAR-5; OVCAR-5, 10^−4 molar): −49% | % Growth (OVCAR-5; OVCAR-5, 10^−5 molar): 51% | % Growth (OVCAR-5; OVCAR-5, 10^−6 molar): 39% | % Growth (OVCAR-5; OVCAR-5, 10^−7 molar): 46% | % Growth (OVCAR-5; OVCAR-5, 10^−8 molar): 52% | % Growth (SK-MEL-2; SK-MEL-2, 10^−4 molar): 27% | % Growth (SK-MEL-2; SK-MEL-2, 10^−5 molar): 49% | percent of growth of human tumor cells (RPMI-8226): −18% | % Growth (ACHN): −82% | percent of growth of human tumor cells (M14): −6% | percent of growth of human tumor cells (BT-549): −52% | percent of growth of human tumor cells (HCT-116): 26% | percent of growth of human tumor cells (HCT-15): −59% | % Growth (KM12; KM12, 10^−4 molar): −68% | % Growth (KM12; KM12, 10^−5 molar): −75% | % Growth (KM12; KM12, 10^−6 molar): 66%

From patent US8124793B2, “Derivatives of ethylene methanedisulfonate as cancer chemotherapeutic agents” (priority 2007, dated 2012)
